Laboratory results taken from patent EP0726261A1, “Herbidical 1,2,4 thiadiazoles” (American Cyanamid Company, priority 1995, dated 1996).

How the values were obtained:
Format in all cases: in vivo
[1] = system: Hordeum vulgare; experiment: Preemergence herbicidal activity (Example 67); parameters: herbicide rating, HORVW: scale not given here; conditions: pre; 800 g/ha; rated about 1-3 weeks after treatment
Protocol: (§1) Herbicidal evaluation of compounds of the invention is conducted on the following plant species:
(§2) The soil is a prepared horticultural substrate containing 30% peat, 20% volcanic clay, 30% bark residues and 20% polyamide/styromull in a 1:3 mixture with loamy sand. Test solutions are prepared by dissolving the test compound in acetone containing 0.5% of an alkylphenol/ethylene oxide condensate under the trademark, TRITON® X-155, and diluting with water as needed. The test solutions are applied as a spray to the 3-6 week old seedling plants at dose rates corresponding to 800g/ha in a volume equivalent to 400 L/ha. A pneumatic spraying device employing a Teejet nozzle SS 8002E operating at 3 bar is used for a predetermined time. After spraying, the treated plants are placed on greenhouse benches and cared for in a manner commensurate with conventional greenhouse practice. After 10-21 days, the treated plants are evaluated and rated according to the rating system provided below.
(§3) The soil surface is then sprayed with test solutions as described in the postemergence evaluation hereinabove. After spraying, the treated cups are placed on greenhouse benches and cared for in the manner commensurate with conventional greenhouse practice. About 1-3 weeks after treatment the cups are evaluated and rated according to the rating system provided hereinabove.

[2] = system: Alopecurus myosuroides; experiment: Preemergence herbicidal activity (Example 67); parameters: herbicide rating, ALOMY: scale not given here; conditions: pre; 800 g/ha; rated about 1-3 weeks after treatment
Protocol: as §1, §2, §3

[3] = system: Triticum aestivum; experiment: Preemergence herbicidal activity (Example 67); parameters: herbicide rating, TRZAW: scale not given here; conditions: pre; 800 g/ha; rated about 1-3 weeks after treatment
Protocol: as §1, §2, §3

[4] = system: Setaria viridis; experiment: Preemergence herbicidal activity (Example 67); parameters: herbicide rating, SETVI: scale not given here; conditions: pre; 800 g/ha; rated about 1-3 weeks after treatment
Protocol: as §1, §2, §3

[5] = system: Helianthus annuus; experiment: Postemergence herbicidal activity (Example 67); conditions: pos; 800 g/ha; rated after 10-21 days
Protocol: as §1, §2

[6] = system: Alopecurus myosuroides; experiment: Postemergence herbicidal activity (Example 67); conditions: pos; 800 g/ha; rated after 10-21 days
Protocol: as §1, §2

[7] = system: Hordeum vulgare; experiment: Postemergence herbicidal activity (Example 67); conditions: pos; 800 g/ha; rated after 10-21 days
Protocol: as §1, §2

[8] = system: Amaranthus retroflexus; experiment: Postemergence herbicidal activity (Example 67); conditions: pos; 800 g/ha; rated after 10-21 days
Protocol: as §1, §2

[9] = system: Galium aparine; experiment: Postemergence herbicidal activity (Example 67); conditions: pos; 800 g/ha; rated after 10-21 days
Protocol: as §1, §2

[10] = system: Triticum aestivum; experiment: Postemergence herbicidal activity (Example 67); conditions: pos; 800 g/ha; rated after 10-21 days
Protocol: as §1, §2

[11] = system: Chenopodium album; experiment: Postemergence herbicidal activity (Example 67); conditions: pos; 800 g/ha; rated after 10-21 days
Protocol: as §1, §2

[12] = system: Veronica persica; experiment: Postemergence herbicidal activity (Example 67); conditions: pos; 800 g/ha; rated after 10-21 days
Protocol: as §1, §2

[13] = system: Ipomoea hederacea; experiment: Postemergence herbicidal activity (Example 67); conditions: pos; 800 g/ha; rated after 10-21 days
Protocol: as §1, §2

[14] = system: Setaria viridis; experiment: Postemergence herbicidal activity (Example 67); conditions: pos; 800 g/ha; rated after 10-21 days
Protocol: as §1, §2

[15] = system: Zea mays; experiment: Postemergence herbicidal activity (Example 67); conditions: pos; 800 g/ha; rated after 10-21 days
Protocol: as §1, §2

[16] = system: Abutilon theophrasti; experiment: Postemergence herbicidal activity (Example 67); conditions: pos; 800 g/ha; rated after 10-21 days
Protocol: as §1, §2

[17] = system: Helianthus annuus; experiment: Preemergence herbicidal activity (Example 67); conditions: pre; 800 g/ha; rated about 1-3 weeks after treatment
Protocol: as §1, §2, §3

[18] = system: Amaranthus retroflexus; experiment: Preemergence herbicidal activity (Example 67); conditions: pre; 800 g/ha; rated about 1-3 weeks after treatment
Protocol: as §1, §2, §3

[19] = system: Galium aparine; experiment: Preemergence herbicidal activity (Example 67); conditions: pre; 800 g/ha; rated about 1-3 weeks after treatment
Protocol: as §1, §2, §3

[20] = system: Chenopodium album; experiment: Preemergence herbicidal activity (Example 67); conditions: pre; 800 g/ha; rated about 1-3 weeks after treatment
Protocol: as §1, §2, §3

[21] = system: Veronica persica; experiment: Preemergence herbicidal activity (Example 67); conditions: pre; 800 g/ha; rated about 1-3 weeks after treatment
Protocol: as §1, §2, §3

[22] = system: Ipomoea hederacea; experiment: Preemergence herbicidal activity (Example 67); conditions: pre; 800 g/ha; rated about 1-3 weeks after treatment
Protocol: as §1, §2, §3

[23] = system: Zea mays; experiment: Preemergence herbicidal activity (Example 67); conditions: pre; 800 g/ha; rated about 1-3 weeks after treatment
Protocol: as §1, §2, §3

[24] = system: Abutilon theophrasti; experiment: Preemergence herbicidal activity (Example 67); conditions: pre; 800 g/ha; rated about 1-3 weeks after treatment
Protocol: as §1, §2, §3

| SMILES | herbicide rating, HORVW [1] | herbicide rating, ALOMY [2] | herbicide rating, TRZAW [3] | herbicide rating, SETVI [4] | herbicide rating, HELAN [5] | herbicide rating, ALOMY [6] | herbicide rating, HORVW [7] | herbicide rating, AMARE [8] | herbicide rating, GALAP [9] | herbicide rating, TRZAW [10] | herbicide rating, CHEAL [11] | herbicide rating, VERPE [12] | herbicide rating, IPOHE [13] | herbicide rating, SETVI [14] | herbicide rating, ZEAMX [15] | herbicide rating, ABUTH [16] | herbicide rating, HELAN [17] | herbicide rating, AMARE [18] | herbicide rating, GALAP [19] | herbicide rating, CHEAL [20] | other results |
| --- | --- | --- | --- | --- | --- | --- | --- | --- | --- | --- | --- | --- | --- | --- | --- | --- | --- | --- | --- | --- | --- |
| CC(NC(=O)c1nsc(-c2cccc(C(F)(F)F)c2)n1)c1cccs1 (racemic) [Example 3, (R/S)-5-(3-Trifluoromethylphenyl)-[1,2,4]thiadiazole-3-carboxylic acid, [1-(2-thienyl)ethyl]amide] | 0 | 0 | 0 | 0 | 4 (30-44%) | 3 (16-29%) | 2 (6-15%) | 2 (6-15%) | 2 (6-15%) | 2 (6-15%) | 4 (30-44%) | 0 | 3 (16-29%) | 8 (91-99%) | 1 (1-5%) | 1 (1-5%) | 0 | 0 | 0 | 3 (16-29%) | herbicide rating, VERPE [21]: 0; herbicide rating, IPOHE [22]: 0; herbicide rating, ZEAMX [23]: 0; herbicide rating, ABUTH [24]: 0 |
| CCCCc1nsc(C(=O)NC(C)c2cccs2)n1 (racemic) [Example 25] | 0 | 0 | 0 | 0 | 7 (80-90%) | 4 (30-44%) | 3 (16-29%) | 3 (16-29%) | 6 (65-79%) | 2 (6-15%) | 6 (65-79%) | 3 (16-29%) | 5 (45-64%) | 8 (91-99%) | 0 | 6 (65-79%) | 0 | 0 | 0 | 6 (65-79%) | herbicide rating, VERPE [21]: 4 (30-44%); herbicide rating, IPOHE [22]: 0; herbicide rating, ZEAMX [23]: 0; herbicide rating, ABUTH [24]: 0 |
| CC(NC(=O)c1nc(-c2ccc(Cl)cc2)ns1)c1cccs1 (racemic) [Example 26] | 0 | 0 | 0 | 0 | 7 (80-90%) | 2 (6-15%) | 3 (16-29%) | 6 (65-79%) | 5 (45-64%) | 2 (6-15%) | 5 (45-64%) | 4 (30-44%) | 6 (65-79%) | 5 (45-64%) | 4 (30-44%) | 5 (45-64%) | 0 | 0 | 0 | 3 (16-29%) | herbicide rating, VERPE [21]: 2 (6-15%); herbicide rating, IPOHE [22]: 0; herbicide rating, ZEAMX [23]: 0; herbicide rating, ABUTH [24]: 0 |
| CC(NC(=O)c1nc(C=Cc2ccccc2)ns1)c1cccs1 (racemic) [Example 29] | 0 | 0 | 0 | 0 | 4 (30-44%) | 2 (6-15%) | 0 | 1 (1-5%) | 1 (1-5%) | 0 | 3 (16-29%) | 0 | 4 (30-44%) | 4 (30-44%) | 0 | 1 (1-5%) | 0 | 0 | 0 | 4 (30-44%) | herbicide rating, VERPE [21]: 0; herbicide rating, IPOHE [22]: 0; herbicide rating, ZEAMX [23]: 0; herbicide rating, ABUTH [24]: 0 |
